From ChEMBL document CHEMBL2375322, “Synthesis using microwave irradiation and antibacterial evaluation of new N,O-acetals and N,S-acetals derived from 2-amino-1,4-naphthoquinones” (2013) come the findings set out here.

A word on the MIC: it is the lowest concentration found to suppress growth. Lower therefore signals inhibition by little substance.

What all share (assay type): functional
Test [1] concerns Staphylococcus aureus. The test can be described thus: Antibacterial activity against Staphylococcus aureus ATCC 25923 after 18 to 24 hrs by disc diffusion assay. (In general: A growth-free zone around the sample is the usual read-out of agar diffusion tests.)
Test [2] relates to Staphylococcus aureus. The test can be described thus: Antibacterial activity against Staphylococcus aureus after 18 to 24 hrs by disc diffusion assay.
In test [3] the test system is Staphylococcus aureus. The experiment in a line: Antibacterial activity against oxacillin-resistant Staphylococcus aureus after 18 to 24 hrs by disc diffusion assay.
In test [4] the test system is Klebsiella pneumoniae. The experiment in a line: Antibacterial activity against Klebsiella pneumoniae after 18 to 24 hrs by disc diffusion assay.
The subject of test [5] is Staphylococcus haemolyticus. The experiment in a line: Antibacterial activity against oxacillin-resistant Staphylococcus haemolyticus after 18 to 24 hrs by disc diffusion assay.
The test system of test [6] is Pseudomonas aeruginosa. The experiment in a line: Antibacterial activity against Pseudomonas aeruginosa after 18 to 24 hrs by disc diffusion assay.
Test [7] concerns Staphylococcus aureus. The experiment in a line: Antibacterial activity against methicillin-resistant Staphylococcus aureus after 18 to 24 hrs by disc diffusion assay.
Test [8] relates to Staphylococcus epidermidis. The experiment in a line: Antibacterial activity against oxacillin-resistant Staphylococcus epidermidis after 18 to 24 hrs by disc diffusion assay.
The subject of test [9] is Staphylococcus aureus. The test can be described thus: Antibacterial activity against Staphylococcus aureus ATCC 25923 after 18 to 24 hrs by broth macrodilution method.
The subject of test [10] is Staphylococcus aureus. The test can be described thus: Antibacterial activity against oxacillin-resistant Staphylococcus aureus after 18 to 24 hrs by broth macrodilution method.
The subject of test [11] is Klebsiella pneumoniae. The test can be described thus: Antibacterial activity against Klebsiella pneumoniae after 18 to 24 hrs by broth macrodilution method.
Test [12] deals with Staphylococcus aureus. The experiment in a line: Antibacterial activity against methicillin-resistant Staphylococcus aureus after 18 to 24 hrs by broth macrodilution method.
The test system of test [13] is Staphylococcus haemolyticus. The test can be described thus: Antibacterial activity against oxacillin-resistant Staphylococcus haemolyticus after 18 to 24 hrs by broth macrodilution method.
The subject of test [14] is Staphylococcus aureus. The test can be described thus: Antibacterial activity against Staphylococcus aureus after 18 to 24 hrs by broth macrodilution method.
Test [15] concerns Pseudomonas aeruginosa. The test can be described thus: Antibacterial activity against Pseudomonas aeruginosa after 18 to 24 hrs by broth macrodilution method.
Test [16] concerns Staphylococcus epidermidis. The experiment in a line: Antibacterial activity against oxacillin-resistant Staphylococcus epidermidis after 18 to 24 hrs by broth macrodilution method.

≈ marks a conversion by molar mass, not a printed value. Calls of active or inactive are those of the source. No cut-off for these calls is given here. Bounds are passed on as bounds.

For `CC(C)(C)OCNC1=CC(=O)c2ccccc2C1=O`, the inhibition entry (with Staphylococcus aureus [1]; in the test with Staphylococcus aureus [2]; in the test with Staphylococcus aureus [3]; in the test with Klebsiella pneumoniae [4]; in test [5]; with Pseudomonas aeruginosa [6]) was “inactive” throughout. Further, the inhibition entry (in the test on Staphylococcus aureus [7]; in test [8]) was “inactive” throughout.
For the molecule `COCNC1=CC(=O)c2ccccc2C1=O`, the MIC in the test on Staphylococcus aureus [9] came out at 16 mg/L (≈ 73.7 µM); with Staphylococcus aureus [10] it was 16 mg/L (≈ 73.7 µM); against Klebsiella pneumoniae [11], 256 mg/L (≈ 1180 µM); in the test with Staphylococcus aureus [12], 16 mg/L (≈ 73.7 µM); in test [13] it was 16 mg/L (≈ 73.7 µM); in the test on Staphylococcus aureus [14] it was 16 mg/L (≈ 73.7 µM). For the same molecule, the MIC with Pseudomonas aeruginosa [15] is not below 256 mg/L; in [16] it was 8 mg/L (≈ 36.8 µM). The “diameter of the inhibition zone (DIZ)” value in the test with Staphylococcus aureus [1] amounted to 17 mm; with Staphylococcus aureus [2], 24 mm; with Staphylococcus aureus [3], 18 mm; in the test on Klebsiella pneumoniae [4], 17 mm; in [5], 20 mm; with Pseudomonas aeruginosa [6], 0 mm. Further, the “diameter of the inhibition zone (DIZ)” value with Staphylococcus aureus [7] came out at 16 mm; in test [8], 14 mm.
For the molecule `Cc1ccc(SCNC2=CC(=O)c3ccccc3C2=O)cc1`, the inhibition entry (with Staphylococcus aureus [1]; with Staphylococcus aureus [2]; in the test on Staphylococcus aureus [3]; in the test on Klebsiella pneumoniae [4]; in test [5]; in the test on Pseudomonas aeruginosa [6]) was “inactive” each time. Moreover, the inhibition result (in the test with Staphylococcus aureus [7]; in test [8]) was “inactive” each time.
`O=C1C=C(NCSc2ccccc2)C(=O)c2ccccc21`: the inhibition entry (in the test with Staphylococcus aureus [1]; in the test on Staphylococcus aureus [2]; in the test on Staphylococcus aureus [3]; in the test on Klebsiella pneumoniae [4]; in test [5]; in the test on Pseudomonas aeruginosa [6]) was “inactive” in each case. The inhibition entry (in the test with Staphylococcus aureus [7]; in test [8]) was “inactive” in each case.
On to `O=C1C=C(NCOCc2cn(-c3ccccc3)nn2)C(=O)c2ccccc21`, for which the inhibition result (in the test on Staphylococcus aureus [1]; with Staphylococcus aureus [2]; in the test with Staphylococcus aureus [3]; in the test with Klebsiella pneumoniae [4]; in test [5]; in the test with Pseudomonas aeruginosa [6]) was “inactive” throughout. Further, the inhibition result (in the test with Staphylococcus aureus [7]; in [8]) was “inactive” throughout.
For `COc1ccc(SCNC2=CC(=O)c3ccccc3C2=O)cc1`, the inhibition entry (in the test on Staphylococcus aureus [1]; in the test with Staphylococcus aureus [2]; with Staphylococcus aureus [3]; with Klebsiella pneumoniae [4]; in test [5]; with Pseudomonas aeruginosa [6]) was “inactive” throughout. Further, the inhibition entry (with Staphylococcus aureus [7]; in [8]) was “inactive” each time.
Regarding `CN[C@H](CC(C)C)C(=O)N[C@H]1C(=O)N[C@@H](CC(N)=O)C(=O)N[C@H]2C(=O)N[C@H]3C(=O)N[C@H](C(=O)N[C@H](C(=O)O)c4cc(O)cc(O)c4-c4cc3ccc4O)[C@H](O)c3ccc(c(Cl)c3)Oc3cc2cc(c3O[C@@H]2O[C@H](CO)[C@@H](O)[C@H](O)[C@H]2O[C@H]2C[C@](C)(N)[C@H](O)[C@H](C)O2)Oc2ccc(cc2Cl)[C@H]1O` [VANCOMYCIN], the “diameter of the inhibition zone (DIZ)” value (in the test on Staphylococcus aureus [1]; in the test with Staphylococcus aureus [2]; in the test with Staphylococcus aureus [3]; in [5]; in the test on Staphylococcus aureus [7]; in test [8]) was 16 mm each time. In [13], this molecule came in with an MIC of 2 mg/L (≈ 1.38 µM).
For `O=C1C=C(NCOCc2ccccc2)C(=O)c2ccccc21`, the inhibition result (in the test with Staphylococcus aureus [1]; in the test on Staphylococcus aureus [2]; in the test with Staphylococcus aureus [3]; in the test on Klebsiella pneumoniae [4]; in [5]; in the test with Pseudomonas aeruginosa [6]) was “inactive” each time. Moreover, the inhibition result (with Staphylococcus aureus [7]; in test [8]) was “inactive” each time.
On to `CC(C)OCNC1=CC(=O)c2ccccc2C1=O`, for which the inhibition entry (with Staphylococcus aureus [1]; in the test with Staphylococcus aureus [2]; in the test on Staphylococcus aureus [3]; in the test on Klebsiella pneumoniae [4]; in test [5]; in the test with Pseudomonas aeruginosa [6]) was “inactive” throughout. Also, the inhibition entry (in the test on Staphylococcus aureus [7]; in test [8]) was “inactive” in each case.
Take `C#CCOCNC1=CC(=O)c2ccccc2C1=O`: the MIC is 32 mg/L (≈ 133 µM) in the test with Staphylococcus aureus [9]; 256 mg/L (≈ 1060 µM) in the test on Staphylococcus aureus [10]; not below 256 mg/L against Klebsiella pneumoniae [11]; 64 mg/L (≈ 265 µM) in the test with Staphylococcus aureus [12]; 32 mg/L (≈ 133 µM) in test [13]; 32 mg/L (≈ 133 µM) against Staphylococcus aureus [14]. Further, the MIC (against Pseudomonas aeruginosa [15]; in test [16]) was 16 mg/L (≈ 66.3 µM) each time. The “diameter of the inhibition zone (DIZ)” value was determined as 16 mm in the test with Staphylococcus aureus [1]; 20 mm in the test with Staphylococcus aureus [2]; 12 mm in the test on Staphylococcus aureus [3]; 0 mm in the test with Klebsiella pneumoniae [4]; 18 mm in test [5]; 18 mm in the test on Pseudomonas aeruginosa [6]. Besides, the “diameter of the inhibition zone (DIZ)” value in the test with Staphylococcus aureus [7] turned out to be 16 mm; in test [8] it was 10 mm.
As to `O=C(O)c1cn(C2CC2)c2cc(N3CCNCC3)c(F)cc2c1=O` [CIPROFLOXACIN], the MIC in the test on Klebsiella pneumoniae [11] and in the test with Pseudomonas aeruginosa [15] was 1 mg/L (≈ 3.02 µM) each time. The “diameter of the inhibition zone (DIZ)” value with Klebsiella pneumoniae [4] and with Pseudomonas aeruginosa [6] was 22 mm throughout.
For the molecule `CCOCNC1=CC(=O)c2ccccc2C1=O`, the MIC against Staphylococcus aureus [9] was 8 mg/L (≈ 34.6 µM); with Staphylococcus aureus [10], 32 mg/L (≈ 138 µM); with Klebsiella pneumoniae [11], not below 256 mg/L; in the test with Staphylococcus aureus [12], 32 mg/L (≈ 138 µM); in test [13] it was 64 mg/L (≈ 277 µM); against Staphylococcus aureus [14] it was 4 mg/L (≈ 17.3 µM). In addition, the MIC in the test on Pseudomonas aeruginosa [15] amounted to 128 mg/L (≈ 554 µM); in [16] it was 16 mg/L (≈ 69.2 µM). The “diameter of the inhibition zone (DIZ)” value worked out at 15 mm with Staphylococcus aureus [1]; 18 mm in the test on Staphylococcus aureus [2]; 17 mm with Staphylococcus aureus [3]; 0 mm in the test on Klebsiella pneumoniae [4]; 16 mm in test [5]; 14 mm in the test with Pseudomonas aeruginosa [6]. For the same molecule, the “diameter of the inhibition zone (DIZ)” value stood at 14 mm in the test with Staphylococcus aureus [7] and 10 mm in test [8].
Regarding `CCCSCNC1=CC(=O)c2ccccc2C1=O`, the inhibition result (in the test on Staphylococcus aureus [1]; with Staphylococcus aureus [2]; with Staphylococcus aureus [3]; in the test on Klebsiella pneumoniae [4]; in test [5]; in the test on Pseudomonas aeruginosa [6]) was “inactive” throughout. Moreover, the inhibition result (in the test on Staphylococcus aureus [7]; in [8]) was “inactive” throughout.
Consider `CC1=C(NCSc2ccccc2)C(=O)c2ccccc2C1=O`, for which the inhibition entry (in the test with Staphylococcus aureus [1]; in the test with Staphylococcus aureus [2]; with Staphylococcus aureus [3]; in the test with Klebsiella pneumoniae [4]; in test [5]; in the test on Pseudomonas aeruginosa [6]) was “inactive” throughout. Also, the inhibition entry (in the test on Staphylococcus aureus [7]; in test [8]) was “inactive” in each case.
On to `Cc1ccccc1SCNC1=CC(=O)c2ccccc2C1=O`, for which the inhibition result (in the test on Staphylococcus aureus [1]; in the test with Staphylococcus aureus [2]; in the test on Staphylococcus aureus [3]; in the test on Klebsiella pneumoniae [4]; in test [5]; in the test with Pseudomonas aeruginosa [6]) was “inactive” throughout. For the same molecule, the inhibition result (in the test with Staphylococcus aureus [7]; in test [8]) was “inactive” each time.
As to `CSc1ccc(SCNC2=CC(=O)c3ccccc3C2=O)cc1`, the inhibition result (in the test with Staphylococcus aureus [1]; in the test on Staphylococcus aureus [2]; in the test with Staphylococcus aureus [3]; in the test with Klebsiella pneumoniae [4]; in test [5]; in the test on Pseudomonas aeruginosa [6]) was “inactive” each time. For the same molecule, the inhibition entry (with Staphylococcus aureus [7]; in [8]) was “inactive” throughout.
On to `O=C1C=C(NCSc2ccc(F)cc2)C(=O)c2ccccc21`, for which the inhibition entry (in the test with Staphylococcus aureus [1]; in the test on Staphylococcus aureus [2]; in the test on Staphylococcus aureus [3]; in the test on Klebsiella pneumoniae [4]; in [5]; in the test on Pseudomonas aeruginosa [6]) was “inactive” in each case. Besides, the inhibition entry (with Staphylococcus aureus [7]; in [8]) was “inactive” in each case.
